# Measurements as given in patent EP0525360B1, “Novel phenylacetamide derivatives and processes for the preparation thereof” (KOREA RESEARCH INSTITUTE OF CHEMICAL TECHNOLOGY, priority 1991, dated 1993).
# Where a name gives a salt, the structure may show the parent alone.
# Experiments:
# Type in all cases: in vivo
# [1] = test system: test animals; experiment: Behavior analysis (side-effect or toxicity scores); design: key to Sedation / Dyspnoea / Vasodilation / Convulsion / Salivation / Urination: behavior score; higher number = greater side effects; details: behavior score; for Convulsion / Salivation / Urination: normal value 0; for Dyspnoea / Ptosis / Sedation / Vasodilation: normal value 4
# Excerpt: In order to monitor a harmful side-effect or toxicity of the compounds having the formula(I), various behavioral changes in the test animals were observed. […] The higher the number is, the greater the side effects are.
# [2] = test system: mice; experiment: Tail-flick test (radiant heat)
# Experimental: Radiant heat was applied using a beam of high-intensity light focused on a tail spot. The response time, defined as the interval between the onset of the stimulus and the tail flick, was measured electronically(to the nearest 0.1 second). The beam intensity was set at a level giving a mean control reaction time of 3.8±0.4 seconds. […] The percentage of inhibition was determined by the following equation: Inhibition(%) =(Reaction time of the treated group - Reaction time of the control group)/(Reaction time of the control group)x 100 [formula]
# [3] = test system: KTC-ICR mice; experiment: phenyl-1,4-benzoquinone(PBQ) induced writhing test; details: Mus musculus; oral; 0.02% PBQ i.p. 60 minutes later; writhings during 5 minutes; mice 10 to 15g; Examples 33 to 46
# Experimental: (§1) The KTC-ICR mice derived from Charles River Breeding Laboratory in the United States and provided by Experimental Animal Laboratory of Korea Research Institute of Chemical Technology were used as test animals. […] They were tested after having been adjusted to the testing environment for a week. Food and water were given freely; and illumination was maintained on a 12-hour cycle.
# (§2) Experiments were performed in two ways: that is, the acetic acid induced writhing test and the phenyl-1,4-benzoquinone(PBQ) induced writhing test.
# Alternatively, solutions for the PBQ induced writhing test were prepared by dissolving one of the products synthesized in Examples 33 to 46 in a mixture of Tween 80, alcohol and distilled water (1:5:94); and administered orally to the 5 ICR mice for each test in a dose of 0.3mℓ per 30g of body weight. 60 minutes later, 0.02% PBQ solution was administered intraperitoneally in a dose of 0.1mℓ per 30g of body weight of the test animals. 5 minutes thereafter, at the temperature of 40°C, the number of writhings occurred during a period of 5 minutes due to the PBQ solution administered was measured. For comparison, only the mixture of Tween 80, alcohol and distilled water was administered orally to the control group; and, after 60 minutes, the PBQ solution was administered intraperitoneally to the control group in the same manner as mentioned above.
# (§3) The number of writhings suffered by the test group was compared with that of the control group; and the analgesic effect was measured in terms of the percentage of inhibition of writhing(I. W.). I. W. (%) =(A - B)/(A)x 100 [formula] A : the number of writhings suffered by the control group, B : the number of writhings suffered by the test group.
# (§4) These ED50 values for the test compounds are shown in the last column of Table 1.
# [4] = test system: KTC-ICR mice; experiment: acetic acid induced writhing test; details: Mus musculus; oral; 0.9% acetic acid i.p. 60 minutes later; writhings during 10 minutes; mice 20 to 25g; Examples 1 to 32
# Experimental: as §1, §2
# Solutions for the acetic acid induced writhing test were prepared by dissolving one of the end products prepared in Examples […] in a saline solution containing 1% by weight of Tween 80 to have a concentration of 5mg/mℓ and diluting it serially with the saline solution. The test solutions were administered orally in a dose of 0.3mℓ per 30g of body weight, using the 5 ICR mice for each test. 60 minutes later, 0.9% acetic acid solution was administered intraperitoneally in a dose of 0.1mℓ per 30g of body weight. 3 minutes thereafter, the number of writhings generated during a period of 10 minutes due to the administration of acetic acid was measured. For comparison purpose, initially, saline solution alone was administered orally to the control group. 60 minutes thereafter, 0.9% acetic acid solution was administered intraperitoneally to the control group.
# as §3, §4
structure (smiles),measurement,setting,value
"NCCOc1ccc(CC(=O)NCCCc2cccc(C(F)(F)F)c2)cc1N [Example 42, N-{3-(3-trifluoromethylphenyl)propyl}-4-(2-aminoethoxy)-3-aminophenylacetamide]",Convulsion,[1]; dose 11.1mg/Kg,0
same,Salivation,[1]; dose 11.1mg/Kg,0
same,Urination,[1]; dose 11.1mg/Kg,0
same,Dyspnoea,[1]; dose 11.1mg/Kg,4
same,Ptosis,[1]; dose 11.1mg/Kg,4
same,Sedation,[1]; dose 11.1mg/Kg,4
same,Vasodilation,[1]; dose 11.1mg/Kg,4
same,Convulsion,[1]; dose 33.3mg/Kg,0
same,Salivation,[1]; dose 33.3mg/Kg,0
same,Urination,[1]; dose 33.3mg/Kg,0
same,Dyspnoea,[1]; dose 33.3mg/Kg,4
same,Ptosis,[1]; dose 33.3mg/Kg,4
same,Sedation,[1]; dose 33.3mg/Kg,4
same,Vasodilation,[1]; dose 33.3mg/Kg,4
same,Convulsion,[1]; dose 100mg/Kg,0
same,Salivation,[1]; dose 100mg/Kg,0
same,Urination,[1]; dose 100mg/Kg,0
same,Dyspnoea,[1]; dose 100mg/Kg,4
same,Ptosis,[1]; dose 100mg/Kg,7
same,Sedation,[1]; dose 100mg/Kg,7
same,Vasodilation,[1]; dose 100mg/Kg,4
same,Inhibition(%),"[2]; p. o., dose 100 mg/Kg",40%
"Cc1cccc(CCCNC(=O)Cc2ccc(OCCN)c(N)c2)c1 [Example 38, N-{3-(3-methylphenyl)propyl}-4-(2-aminoethoxy)-3-aminophenylacetamide]",ED50,[3],22.1 mg/kg
same,Convulsion,[1]; dose 6.7mg/Kg,0
same,Salivation,[1]; dose 6.7mg/Kg,0
same,Urination,[1]; dose 6.7mg/Kg,0
same,Dyspnoea,[1]; dose 6.7mg/Kg,4
same,Ptosis,[1]; dose 6.7mg/Kg,4
same,Sedation,[1]; dose 6.7mg/Kg,4
same,Vasodilation,[1]; dose 6.7mg/Kg,4
same,Convulsion,[1]; dose 20mg/Kg,0
same,Salivation,[1]; dose 20mg/Kg,0
same,Urination,[1]; dose 20mg/Kg,0
same,Dyspnoea,[1]; dose 20mg/Kg,4
same,Ptosis,[1]; dose 20mg/Kg,5
same,Sedation,[1]; dose 20mg/Kg,4
same,Vasodilation,[1]; dose 20mg/Kg,4
same,Convulsion,[1]; dose 60mg/Kg,0
same,Salivation,[1]; dose 60mg/Kg,0
same,Urination,[1]; dose 60mg/Kg,0
same,Dyspnoea,[1]; dose 60mg/Kg,7
same,Ptosis,[1]; dose 60mg/Kg,7
same,Sedation,[1]; dose 60mg/Kg,6
same,Vasodilation,[1]; dose 60mg/Kg,4
"NCCOc1ccc(CC(=O)NCCCc2ccc(Cl)c(Cl)c2)cc1N [Example 41, N-{3-(3,4-dichlorophenyl)propyl}-4-(2-aminoethoxy)-3-aminophenylacetamide]",ED50,[3],7.18 mg/kg
same,Convulsion,[1]; dose 25mg/Kg,0
same,Salivation,[1]; dose 25mg/Kg,0
same,Urination,[1]; dose 25mg/Kg,0
same,Dyspnoea,[1]; dose 25mg/Kg,4
same,Ptosis,[1]; dose 25mg/Kg,4
same,Sedation,[1]; dose 25mg/Kg,4
same,Vasodilation,[1]; dose 25mg/Kg,4
same,Convulsion,[1]; dose 50mg/Kg,0
same,Salivation,[1]; dose 50mg/Kg,0
same,Urination,[1]; dose 50mg/Kg,0
same,Dyspnoea,[1]; dose 50mg/Kg,4
same,Ptosis,[1]; dose 50mg/Kg,4
same,Sedation,[1]; dose 50mg/Kg,5
same,Vasodilation,[1]; dose 50mg/Kg,4
same,Convulsion,[1]; dose 100mg/Kg,0
same,Salivation,[1]; dose 100mg/Kg,0
same,Urination,[1]; dose 100mg/Kg,0
same,Dyspnoea,[1]; dose 100mg/Kg,5
same,Ptosis,[1]; dose 100mg/Kg,5
same,Sedation,[1]; dose 100mg/Kg,6
same,Vasodilation,[1]; dose 100mg/Kg,4
Cc1cccc(CCCCNC(=O)Cc2ccc(OCCN)cc2)c1 [Example 31],ED50,[4],3.3 mg/kg
"COc1cc(CC(=O)NCCCc2ccc(Cl)cc2)ccc1OCCN [Example 18, N-{3-(4-chlorophenyl)propyl}-4-(2-aminoethoxy)-3-methoxyphenylacetamide]",ED50,[4],0.4 mg/kg
"COc1cccc(CCCNC(=O)Cc2ccc(OCCN)c(OC)c2)c1 [Example 27, N-{3-(3-methoxyphenyl)propyl}-4-(2-aminoethoxy)-3-methoxyphenylacetamide]",ED50,[4],1.25 mg/kg
Cc1ccc(CCCNC(=O)Cc2ccc(OCCN)cc2)cc1C [Example 2],ED50,[4],3.98 mg/kg
"COc1cc(CC(=O)NCCCc2cccc(C(F)(F)F)c2)ccc1OCCN [Example 26, N-{3-(3-trifluoromethylphenyl)propyl}-4-(2-aminoethoxy)-3-methoxyphenylacetamide]",ED50,[4],1.54 mg/kg
Cc1cccc(CCCNC(=O)Cc2ccc(OCCN)cc2)c1 [Example 6],ED50,[4],26.3 mg/kg
Cc1cc(C)cc(CCCNC(=O)Cc2ccc(OCCN)cc2)c1 [Example 14],ED50,[4],3.16 mg/kg
Cc1ccc(CCCNC(=O)Cc2ccc(OCCN)c(Cl)c2)cc1C [Example 4],ED50,[4],4.78 mg/kg
Cc1ccc(CCCNC(=O)Cc2ccc(OCCN)c(F)c2)cc1C [Example 3],ED50,[4],2.95 mg/kg
Cc1ccc(CCCNC(=O)Cc2ccc(OCCN)c(Cl)c2)cc1 [Example 12],ED50,[4],4.7 mg/kg
"Cc1ccc(CCCNC(=O)Cc2ccc(OCCN)c([N+](=O)[O-])c2)cc1C [Example 43, N-{3-(3,4-dimethylphenyl)propyl}-4-(2-aminoethoxy)-3-nitrophenylacetamide]",ED50,[3],22.5 mg/kg
Cc1ccc(CCCNC(=O)Cc2ccc(OCCN)cc2)cc1 [Example 10],ED50,[4],7.9 mg/kg
"COc1cc(CC(=O)NCCCc2ccc(Cl)c(Cl)c2)ccc1OCCN [Example 24, N-{3-(3,4-dichlorophenyl)propyl}-4-(2-aminoethoxy)-3-methoxyphenylacetamide]",ED50,[4],0.66 mg/kg
"NCCOc1ccc(CC(=O)NCCCc2ccc(Cl)cc2)cc1Cl [Example 21, N-{3-(4-chlorophenyl)propyl}-4-(2-aminoethoxy)-3-chlorophenylacetamide]",ED50,[4],0.04 mg/kg
COc1cc(CC(=O)NCCCc2ccc(C)cc2)ccc1OCCN [Example 9],ED50,[4],1.73 mg/kg
"COc1cc(CC(=O)NCCCc2cccc(OCc3ccccc3)c2)ccc1OCCN [Example 28, N-{3-(3-benzyloxyphenyl)propyl}-4-(2-aminoethoxy)-3-methoxyphenylacetamide]",ED50,[4],28.8 mg/kg
Cc1cc(C)cc(CCCNC(=O)Cc2ccc(OCCN)c(Cl)c2)c1 [Example 16],ED50,[4],123 mg/kg
Cc1cccc(CCCNC(=O)Cc2ccc(OCCN)c(F)c2)c1 [Example 7],ED50,[4],2.3 mg/kg
Cc1cccc(CCCNC(=O)Cc2ccc(OCCN)c(Cl)c2)c1 [Example 8],ED50,[4],42.6 mg/kg
"NCCOc1ccc(CC(=O)NCCCc2ccc(Cl)cc2)cc1 [Example 19, N-{3-(4-chlorophenyl)propyl}-4-(2-aminoethoxy)phenylacetamide]",ED50,[4],0.03 mg/kg
COc1cc(CC(=O)NCCc2cc(C)cc(C)c2)ccc1OCCN [Example 17],ED50,[4],0.77 mg/kg
"NCCOc1ccc(CC(=O)NCCCc2ccc(Cl)cc2)cc1F [Example 20, N-{3-(4-chlorophenyl)propyl}-4-(2-aminoethoxy)-3-fluorophenylacetamide]",ED50,[4],0.07 mg/kg
COc1cc(CC(=O)NCCCc2cc(C)cc(C)c2)ccc1OCCN [Example 13],ED50,[4],4.6 mg/kg
Cc1ccc(CCCCNC(=O)Cc2ccc(OCCN)c(F)c2)cc1C [Example 32],ED50,[4],1.44 mg/kg
"COc1cc(CC(=O)NCCCc2ccc3c(c2)OCO3)ccc1OCCN [Example 25, N-{3-(3,4-methylenedioxyphenyl)propyl}-4-(2-aminoethoxy)-3-methoxyphenylacetamide]",ED50,[4],0.8 mg/kg
NCCOc1ccc(CC(=O)NCCCc2ccc(F)cc2)cc1N [Example 40-HCl],Inhibition(%),"[2]; p. o., dose 50 mg/Kg",67%
COc1cc(CC(=O)NCCCc2ccc(C)c(C)c2)ccc1OCCN [Example 1-l-tartarate],Inhibition(%),"[2]; p. o., dose 1.25 mg/Kg",50%
same,Inhibition(%),"[2]; p. o., dose 2.5 mg/Kg",90%
"COc1cc(CNC(=O)CCCC/C=C/C(C)C)ccc1O [Capsaicin, trans-8-methyl-N-vanillyl-6-nonenamide, reference compound]",Inhibition(%),"[2]; mouse, in vivo, 25 mg/kg",90%
"CN1C(C(=O)Nc2ccccn2)=C(O)c2ccccc2S1(=O)=O [Piroxicam, reference compound]",Inhibition(%),"[2]; p. o., dose 100 mg/Kg",0%
COc1cc(CC(=O)NCCCCc2cccc(C)c2)ccc1OCCN [Example 30],ED50,[4],1.54 mg/kg
